Assay results taken from the supplement of paper PMC5908809.

What was measured:
[1] = test system: normal NK cells expanded with K562-aAPC; assay: percent inhibition of viability; higher = more inhibition; conditions: 72 h, IL-2 2.5 ng/mL
Experimental: (§1)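 Drug sensitivity and resistance testing on K562-aAPC-expanded normal NK cells: 5 concentrations (10-fold steps over a 10,000-fold range), 72 h at 37 °C, viability by CellTiter-Glo normalised to DMSO and benzethonium chloride controls; DSS from the fitted curve.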

[2] = test system: DERL-7 (IL-2 2.5 ng/mL); assay: as above; conditions: 72 h
[3] = test system: IMC-1 (IL-2 20 ng/mL); assay: as above; conditions: 72 h
[4] = test system: KAI3 (IL-2 2.5 ng/mL); assay: as above; conditions: 72 h
[5] = test system: KHYG-1 (IL-2 2.5 ng/mL); assay: as above; conditions: 72 h
[6] = test system: NK-92 (IL-2 2.5 ng/mL); assay: as above; conditions: 72 h
[7] = test system: NK-YS (IL-2 2.5 ng/mL); assay: as above; conditions: 72 h
[8] = test system: NKL (IL-2 2.5 ng/mL); assay: as above; conditions: 72 h
[9] = test system: SNK-6 (IL-2 2.5 ng/mL); assay: as above; conditions: 72 h
[10] = test system: YT (IL-2 2.5 ng/mL); assay: as above; conditions: 72 h
[11] = test system: normal primary NK cells, pool 1 (3 donors) (IL-2 2.5 ng/mL); assay: as above; conditions: 72 h
[12] = test system: normal primary NK cells, pool 1 (3 donors), resting (IL-2 0 ng/mL); assay: as above; conditions: 72 h
[13] = test system: normal primary NK cells, pool 2 (3 donors) (IL-2 2.5 ng/mL); assay: as above; conditions: 72 h
[14] = test system: normal primary NK cells, pool 3 (3 donors) (IL-2 2.5 ng/mL); assay: as above; conditions: 72 h
[15] = test system: normal NK cells expanded with K562-aAPC; assay: drug sensitivity score (DSS) (DSS units); higher = more sensitive; extreme values may be limits of the assay; conditions: 72 h; IL-2 2.5 ng/mL
Experimental: as §1

[16] = test system: DERL-7 (IL-2 2.5 ng/mL); assay: as above; conditions: 72 h
[17] = test system: IMC-1 (IL-2 20 ng/mL); assay: as above; conditions: 72 h
[18] = test system: KAI3 (IL-2 2.5 ng/mL); assay: as above; conditions: 72 h
[19] = test system: KHYG-1 (IL-2 2.5 ng/mL); assay: as above; conditions: 72 h
[20] = test system: NK-92 (IL-2 2.5 ng/mL); assay: as above; conditions: 72 h
[21] = test system: NK-YS (IL-2 2.5 ng/mL); assay: as above; conditions: 72 h
[22] = test system: NKL (IL-2 2.5 ng/mL); assay: as above; conditions: 72 h
[23] = test system: SNK-6 (IL-2 2.5 ng/mL); assay: as above; conditions: 72 h
[24] = test system: YT (IL-2 2.5 ng/mL); assay: as above; conditions: 72 h
[25] = test system: normal primary NK cells, pool 1 (3 donors) (IL-2 2.5 ng/mL); assay: as above; conditions: 72 h
[26] = test system: normal primary NK cells, pool 1 (3 donors), resting (IL-2 0 ng/mL); assay: as above; conditions: 72 h
[27] = test system: normal primary NK cells, pool 2 (3 donors) (IL-2 2.5 ng/mL); assay: as above; conditions: 72 h
[28] = test system: normal primary NK cells, pool 3 (3 donors) (IL-2 2.5 ng/mL); assay: as above; conditions: 72 h

CNCc1ccc(-c2[nH]c3cc(F)cc4c3c2CCNC4=O)cc1 [Rucaparib] (max concentration tested 10000 nM)
percent inhibition of viability [%]
Conditions | 1 nM | 10 nM | 100 nM | 1000 nM | 10000 nM
[1] | -4.01 | -1.44 | -1.55 | 6.35 | 21.8
[2] | -9.87 | 10 | 4.56 | 3.4 | 22.7
[3] | -6.39 | -3.67 | -0.13 | 1.12 | 30.4
[4] | -1.49 | 2.99 | 3.22 | 18.5 | 43.5
[5] | -3.58 | -2.03 | -1.44 | 4.57 | 20
[6] | -18.8 | 8.56 | -9.2 | 6.16 | 47.7
[7] | -2.32 | -3.72 | 1.59 | 11.2 | 75.7
[8] | -15.5 | 5.49 | 23.9 | 53.6 | 87.9
[9] | 7.29 | -11.5 | -2.3 | 1 | 31
[10] | -4.68 | -5.01 | -3.45 | 2.32 | 17.4
[11] | 4.59 | 15.4 | 12.4 | 3.34 | 18.9
[12] | 3.79 | 19.2 | 4.4 | 7.5 | -5.08
[13] | -2.83 | 5.08 | -1.77 | -1.32 | 4.05
[14] | -0.27 | 12.1 | 3.56 | -0.98 | 7.3

Conditions | drug sensitivity score
[15] | 1.54
[16] | 1.29
[17] | 1.47
[18] | 4.23
[19] | 1.18
[20] | 3.52
[21] | 6.07
[22] | 13.3
[23] | 1.5
[24] | 0.68
[25] | 0
[26] | 0
[27] | 0
[28] | 0

CC(C)N(CCCNC(=O)Nc1ccc(C(C)(C)C)cc1)C[C@H]1O[C@@H](n2cc(Br)c3c(N)ncnc32)[C@H](O)[C@@H]1O [SGC0946] (max concentration tested 10000 nM)
percent inhibition of viability [%]
Conditions | 1 nM | 10 nM | 100 nM | 1000 nM | 10000 nM
[1] | -2.37 | -3.94 | 1.95 | 8.9 | 10.9
[2] | 4.94 | 2.4 | 5.77 | 1.04 | 37
[3] | -8.07 | -3.94 | -2.69 | 2.99 | 17.2
[4] | 2.28 | -1.4 | -1.58 | 5.53 | 72.2
[5] | -5.1 | -1.55 | -1.47 | 1.03 | 17
[6] | -2.74 | -1.7 | 19.9 | 10.5 | 40.7
[7] | -4.5 | -0.39 | 3.77 | -0.01 | 21.5
[8] | -15 | -7.75 | 4.16 | 0.58 | 33.7
[9] | -6.32 | -2.25 | 0.17 | 25.4 | 38.7
[10] | -3.26 | -3.19 | 0.56 | 0.95 | 27.2
[11] | 8.37 | -3.22 | 1.91 | -6.49 | 19
[12] | 15.8 | -4.32 | 5.19 | -6.57 | 62.3
[13] | -1.67 | -6.15 | 8.39 | -1.8 | 25.8
[14] | -5.94 | -2.43 | 8.64 | 3.42 | 22.6

Conditions | drug sensitivity score
[15] | 0.11
[16] | 1.92
[17] | 0.74
[18] | 4.84
[19] | 0.48
[20] | 3.88
[21] | 0.7
[22] | 1.63
[23] | 4.92
[24] | 1.23
[25] | 0.32
[26] | 2.93
[27] | 0.89
[28] | 1.29

Cn1cc(-c2ccc3nnc(Sc4ccc5ncccc5c4)n3n2)cn1 [SGX-523] (max concentration tested 5000 nM)
percent inhibition of viability [%]
Conditions | 0.5 nM | 5 nM | 50 nM | 500 nM | 5000 nM
[1] | -2.93 | -10.2 | -5.18 | -9.17 | -2.25
[2] | 3.14 | 1.32 | -1.44 | 5.03 | 14.4
[3] | -3.56 | -0.25 | -5.07 | -2.74 | -1.91
[4] | -4.24 | -1.01 | 0.45 | 4.1 | 9.78
[5] | -5.57 | -5.37 | -9.26 | -3.51 | -7.2
[6] | 0.34 | -0.3 | -4.47 | -3.94 | 1.25
[7] | 1.09 | -7.03 | -6.25 | -1.89 | -5.01
[8] | 3.77 | -3.27 | -2.38 | -4.59 | 3.26
[9] | 3.69 | 0.4 | -1.97 | 8.43 | 7.74
[10] | -2.71 | -0.74 | -1.93 | 1.35 | -0.07
[11] | -8.19 | -11.2 | -7.5 | -10.9 | 5.13
[12] | -11.2 | -4.96 | 17.1 | 10.2 | 32.6
[13] | 1.04 | -8.92 | -3.62 | -0.26 | 11.5
[14] | 3.88 | -2.63 | 1.81 | 1.46 | 11.1

Conditions | drug sensitivity score
[15] | 0.89
[16] | 0.58
[17] | 0.89
[18] | 0
[19] | 0.89
[20] | 0
[21] | 0
[22] | 0
[23] | 0
[24] | 0
[25] | 0
[26] | 2.87
[27] | 0.02
[28] | 0.04

CN1CCN(CCOc2cc(OC3CCOCC3)c3c(Nc4c(Cl)ccc5c4OCO5)ncnc3c2)CC1 [Saracatinib] (max concentration tested 10000 nM)
percent inhibition of viability [%]
Conditions | 1 nM | 10 nM | 100 nM | 1000 nM | 10000 nM
[1] | -1.72 | -3.19 | 2.46 | 6.91 | 94.3
[2] | -0.15 | 1.98 | 7.09 | 17.7 | 74.7
[3] | -4.77 | -2.25 | -2.36 | -0.89 | 100
[4] | -1.92 | -9.84 | -6.46 | 7.42 | 56.8
[5] | -5.13 | -8 | -4.22 | 0.25 | 77.8
[6] | -2.32 | 4.14 | 9.55 | 18.4 | 68.4
[7] | -1.8 | -3.94 | -0.18 | 5.62 | 51.1
[8] | -14.8 | -18.5 | -9.99 | -5.02 | 48.9
[9] | -3.28 | -15.1 | -18 | -41.3 | 21.7
[10] | -2.96 | -2.67 | -0.94 | 26.4 | 68.2
[11] | -9.24 | 11.2 | 7.65 | -4.55 | 45.9
[12] | -9.8 | 15.2 | 16.2 | 24 | 85.8
[13] | -0.71 | -2.6 | 6.1 | -10.6 | 9.82
[14] | -6.07 | 9.22 | 9.63 | -17.2 | 0.69

Conditions | drug sensitivity score
[15] | 6.3
[16] | 6.92
[17] | 5.54
[18] | 4.31
[19] | 4.35
[20] | 6.22
[21] | 3.64
[22] | 2.2
[23] | 0.27
[24] | 7.37
[25] | 2.04
[26] | 7.66
[27] | 0
[28] | 0

CC[C@H](CO)Nc1nc(NCc2ccccc2)c2ncn(C(C)C)c2n1 [Seliciclib] (max concentration tested 10000 nM)
percent inhibition of viability [%]
Conditions | 1 nM | 10 nM | 100 nM | 1000 nM | 10000 nM
[1] | -5.19 | -1.17 | -5.63 | 3.89 | 27.1
[2] | -1.96 | 7.05 | 6.82 | 0.8 | 33.1
[3] | -6.54 | -8.7 | -1.13 | 2.41 | 13.2
[4] | -1.01 | -9.53 | -1.56 | 6.38 | 67.1
[5] | 4.31 | -8.69 | -4.34 | 1.22 | 18.6
[6] | -2.72 | -1.58 | -0.03 | 23.2 | 39.9
[7] | 8.26 | -2 | -1.62 | 7.11 | 38.7
[8] | -8.83 | -15.7 | -16.8 | 10.3 | 41.6
[9] | -14.8 | -13.5 | -3.42 | -23.2 | 23.9
[10] | 2.72 | -5.9 | -1.61 | 9.31 | 53.2
[11] | -1.6 | -3.91 | 11.5 | 8.66 | 32.8
[12] | -1.46 | -6.05 | 15.1 | 7.69 | 9.97
[13] | -12.7 | -4.83 | 5.97 | 1.18 | 33.5
[14] | 0.36 | 1.61 | 11.3 | -0.47 | 17.9

Conditions | drug sensitivity score
[15] | 1.71
[16] | 1.62
[17] | 0.28
[18] | 4.72
[19] | 0.62
[20] | 4.81
[21] | 3.07
[22] | 3.69
[23] | 0.43
[24] | 4.39
[25] | 2.2
[26] | 2.43
[27] | 1.7
[28] | 0.41
